Assay results reported in ChEMBL document CHEMBL1137829, “In vitro anti-parasitic activity of Cyclosporin A analogs on Trypanosoma cruzi” (Bioorg Med Chem Lett, 2004).

Assays:
Trypanosoma cruzi [1] = assay: Compound was tested for the inhibition of Trypanosoma cruzi epimastigote growth after 72 hours of treatment; type: functional, organism-based
Trypanosoma cruzi [2] = assay: Effective concentration required for the lysis of Trypanosoma cruzi trypomastigotes in blood stream after 24 hours of treatment; type: functional, organism-based
[3] = Inhibition of Peptidyl-prolyl cis-trans isomerase Trypanosoma cruzi cyclophilin (CL Brener strain, p19)

SMILES	IC50 (Trypanosoma cruzi [1]; read-out: IC50) [µM]	EC50 (Trypanosoma cruzi [2]) [µM]	IC50 [3] [µM]	IC50 (Trypanosoma cruzi [1]) [µM]
CCC/C=C(/C)[C@@H](O)[C@H]1C(=O)N[C@@H]([C@@H](C)OCCCO)C(=O)N(C)CC(=O)N(C)[C@@H](CC(C)C)C(=O)N[C@@H](C(C)C)C(=O)N(C)[C@@H](CC(C)C)C(=O)N[C@@H](C)C(=O)N[C@H](C)C(=O)N(C)[C@@H](CC(C)C)C(=O)N(C)[C@@H](CC(C)C)C(=O)N(C)[C@@H](C(C)C)C(=O)N1C	18.4	36.8	0.0221	–
CC[C@@H]1NC(=O)[C@H]([C@H](O)/C(C)=C\CCCOC)N(C)C(=O)[C@H](C(C)C)N(C)C(=O)[C@H](CC(C)C)N(C)C(=O)[C@H](CC(C)C)N(C)C(=O)[C@@H](C)NC(=O)[C@H](C)NC(=O)[C@H](CC(C)C)N(C)C(=O)[C@H](C(C)C)NC(=O)[C@H](CC(C)C)N(C)C(=O)CN(C)C1=O	33.8	76.1	0.0255	–
CC[C@@H]1NC(=O)[C@H]([C@H](O)C(C)C/C=C/c2ccccc2)N(C)C(=O)[C@H](C(C)C)N(C)C(=O)[C@H](CC(C)C)N(C)C(=O)[C@H](CC(C)C)N(C)C(=O)[C@@H](C)NC(=O)[C@H](C)NC(=O)[C@H](CC(C)C)N(C)C(=O)[C@H](C(C)C)NC(=O)[C@H](CC(C)C)N(C)C(=O)CN(C)C1=O (stereo not given in full)	0.82	0.97	0.0125	–
CC[C@@H]1NC(=O)[C@H]([C@H](O)C(C)CCCc2ccccc2)N(C)C(=O)[C@H](C(C)C)N(C)C(=O)[C@H](CC(C)C)N(C)C(=O)[C@H](CC(C)C)N(C)C(=O)[C@@H](C)NC(=O)[C@H](C)NC(=O)[C@H](CC(C)C)N(C)C(=O)[C@H](C(C)C)NC(=O)[C@H](CC(C)C)N(C)C(=O)CN(C)C1=O (stereo not given in full)	3.41	2.66	0.0133	–
C/C=C/CC(C)[C@@H](O)[C@H]1C(=O)N[C@@H](CC)C(=O)N(C)CC(=O)N(C)[C@@H](CC(C)C)C(=O)N[C@@H](C(C)C)C(=O)N(C)[C@@H](CC(C)C)C(=O)N[C@@H](C)C(=O)N[C@H]([C@H](C)O)C(=O)N(C)[C@@H](CC(C)C)C(=O)N(C)[C@@H](CC(C)C)C(=O)N(C)[C@@H](C(C)C)C(=O)N1C (stereo not given in full)	6.93	13.4	0.0169	–
CC[C@@H]1NC(=O)[C@H]([C@H](O)/C(C)=C\CCC(=O)OC(C)C)N(C)C(=O)[C@H](C(C)C)N(C)C(=O)[C@H](CC(C)C)N(C)C(=O)[C@H](CC(C)C)N(C)C(=O)[C@@H](C)NC(=O)[C@H](C)NC(=O)[C@H](CC(C)C)N(C)C(=O)[C@H](C(C)C)NC(=O)[C@H](CC(C)C)N(C)C(=O)CN(C)C1=O	7.64	58.6	–	–
CC[C@@H]1NC(=O)[C@H]([C@H](O)/C(C)=C\CCCN=[N+]=[N-])N(C)C(=O)[C@H](C(C)C)N(C)C(=O)[C@H](CC(C)C)N(C)C(=O)[C@H](CC(C)C)N(C)C(=O)[C@@H](C)NC(=O)[C@H](C)NC(=O)[C@H](CC(C)C)N(C)C(=O)[C@H](C(C)C)NC(=O)[C@H](CC(C)C)N(C)C(=O)CN(C)C1=O	10.6	7.98	0.0232	–
CCC/C=C(/C)[C@@H](O)[C@H]1C(=O)N[C@@H](CC)C(=O)N(C)CC(=O)N(C)[C@@H](CC(C)CO)C(=O)N[C@@H](C(C)C)C(=O)N(C)[C@@H](CC(C)C)C(=O)N[C@@H](C)C(=O)N[C@H](C)C(=O)N(C)[C@@H](CC(C)C)C(=O)N(C)[C@@H](CC(C)C)C(=O)N(C)[C@@H](C(C)C)C(=O)N1C (stereo not given in full)	11.4	153	0.0193	–
C/C=C/C[C@@H](C)[C@@H](O)[C@H]1C(=O)N[C@@H](CC)C(=O)N(C)CC(=O)N(C)[C@@H](CC(C)C)C(=O)N[C@@H](C(C)C)C(=O)N(C)[C@@H](CC(C)C)C(=O)N[C@@H](C)C(=O)N[C@H](C)C(=O)N(C)[C@@H](CC(C)C)C(=O)N(C)[C@@H](CC(C)C)C(=O)N(C)[C@@H](C(C)C)C(=O)N1C [CYCLOSPORINE]	–	7.19	–	5.39
